Results from patent US12286418B2, “Compounds and methods for treating or preventing bacterial infections” (priority 2019, dated 2025).
“And” between values parts separate entries of the source, which are not always exact repeats. Equal entries are not always repeated. “Also recorded” adds a separate entry of the source. Where two headings read alike, the source gives them in different places.

Assays:
OXA-48 = OXA-48 (Klebsiella pneumoniae, UniProt Q6XEC0); test: OXA-48 inhibition assay using nitrocefin as reporter; type: biochemical; design: His-tag (N, cleaved yes); made in house; host or cells: E. coli BL21(DE3), pET28a; details: for potency/activity against OXA-48 in words: purified OXA-48, compared with CDD-97 where a derivative
Procedure: Nitrocefin, a chromogenic β-lactam substrate, was used as a reporter in all inhibition assays with the various OXA enzymes and various compounds. Nitrocefin is not stable in aqueous solution long-term. For these assays, nitrocefin stocks were prepared in DMSO, stored at −20° C. and used within 2 weeks of dissolving. To avoid freeze-thawing, fresh stocks were always used. The Km of nitrocefin was determined prior to inhibition assays by performing steady state kinetics. Assays were performed using a DU800 spectrophotometer at room temperature in 50 mM HEPES pH 7.5, 15 mM NaHCO3, and 0.02% tween 20 buffer. Hydrolyzed nitrocefin was detected at 482 nm. For a single experiment, a series of at least 5 nitrocefin concentrations were tested against the given enzyme in duplicate and the initial velocities were measured and fit to the Michaelis-Menten equation. Experiments were repeated twice, and error reported is the standard error of the mean.
Compounds were tested for inhibition of a given OXA enzyme from hydrolyzing nitrocefin using a Tecan plate reader. […] A control with no compound was included in each run. For each compound concentration, the velocity of nitrocefin hydrolysis was determined at 482 nm and fit to the Morrison equation. […] The average Ki of separate experiments, each of which consisted of duplicate runs, is reported and error was quantified as the standard deviation.
The activity of these derivatives was assessed using inhibition assays with purified OXA-48. Compounds were tested for the ability to inhibit OXA-48 from hydrolyzing nitrocefin, a chromogenic β-lactam substrate routinely used in β-lactamase inhibition assays. Nitrocefin contains a conjugated ring system that is readily hydrolyzed and produces a visible color shift from yellow to red upon hydrolysis (O'Callaghan, et al., 1972, Antimicrob. Agents Chemother. 1:283-288). The rate of nitrocefin hydrolysis in the presence of a constant amount of OXA-48 and increasing concentrations of a given compound of interest was monitored at 482 nm. These rates were plotted against compound concentration to determine the inhibition constant (Ki) against OXA-48. […] SPR was performed using 6×-His-OXA-48 enzyme that was amine-coupled on a Ni-NTA Chip. Meropenem, which covalently binds and inhibits OXA-48, was used as a positive control.

E. coli MG1655OXA-48 = test: Bacterial susceptibility (MIC, broth microdilution) of E. coli expressing OXA-48; type: cell-based; details: for MIC: Escherichia coli
Procedure: Bacterial susceptibility was specifically tested using minimum inhibitory concentration assays. Susceptibility assays were performed with E. coli strains using broth in a microplate set up. Two-fold dilutions of antibiotic and/or inhibitor were used. For susceptibility tests, bacterial strains were transformed with plasmids containing OXA-48 with its endogenous signal sequence for periplasmic migration (cloned into pTP123 vector) (Majiduddin & Palzkill, 2003, Antimicrob. Agents Chemother. 47:1062-1067). pTP123 was cut with XbaI and SacI and the linearized fragment was assembled using Gibson assembly (New England Biolabs, Ipswich, MA) its signal sequence cloned in by using Gibson assembly. Bacteria were grown in Mueller-Hinton broth with 12.5 μg/mL chloramphenicol (plasmid marker) overnight. An overnight culture was diluted 1:10^4 into the final well solutions (100 uL total) and incubated for 16-18 hours. After incubation, microplates were read using a Tecan plate reader at absorbance 600. Growth was objectively defined as yielding an absorbance ≥2 times the absorbance of the negative control (media and no culture). Experiments were repeated with new bacterial inoculums each time.
Effective β-lactamase inhibitors synergize with β-lactam antibiotics and ultimately lower the minimum inhibitory concentration (MIC) of antibiotic needed to kill the bacteria. MIC studies were performed with ampicillin (AMP), a β-lactam antibiotic readily hydrolyzed by OXA-48, against E. coli strain MG1655 expressing OXA-48 (MG1655OXA-48). The OXA-48 plasmid construct contained the endogenous signal sequence of OXA-48 for secretion to the periplasm, which was expressed under a trc-promoter, allowing leaky expression in the absence of IPTG inducer. All MICs were performed by broth microdilution with 2-fold dilutions of antibiotic and/or inhibitor (FIG. 6A). The ampicillin (AMP) and imipenem (IMP) MICs were separately determined for a range of CDD-97 and avibactam concentrations. […] In the absence of bacteria, the media (Mueller Hinton) gives an absorbance reading of 0.04 so absorbance readings greater than or equal to two-fold the control were considered bacterial growth. […] CDD-97 was tested for its synergistic ability by determining AMP MICs with a range of CDD-97 concentrations (up to 256 μg/ml).
Impermeability of the outer membrane to small molecules is a major challenge for the development of therapeutics for Gram-negative bacterial infections. β-lactamases, including OXA-48, reside in the periplasmic space and so inhibitors must traverse the outer membrane to be effective. To determine whether low permeability caused the poor in vivo activity of CDD-97, an accumulation assay (Richter, et al., 2017, Nature 545:299-304) was performed to quantify the amount of CDD-97 present in E. coli cells after incubation. In the assay, tetracycline was used as a positive control while fusidic acid and clindamycin were used as negative controls (Richter, et al., 2017, Nature 545:299-304). Controls and CDD-97 were separately incubated with wildtype E. coli (MG1655) cells and then these cells were centrifuged through silicone oil to separate free, unaccumulated compound from the cell pellet. Cell lysates were collected by freeze-thawing and analyzed by mass spectrometry to quantify the amount of accumulated compound. Compared to tetracycline, CDD-97 was present in cells at 20-fold lower levels (FIG. 6B). […] The finding that CDD-97 accumulates inefficiently across the outer membrane was also examined by adding sub-lethal concentrations of colistin to the ampicillin/CDD-97 MIC assays. Colistin is known to disrupt the outer membrane and enhance permeability in E. coli. If the outer membrane is a barrier for CDD-97, it was predicted that the addition of sub-lethal concentrations of colistin would enhance the activity of CDD-97 against E. coli. […]

[1] = purified OXA-48, nitrocefin hydrolysis, Morrison fit

OXA-48, sequence (Q6XEC0 23-265, looked up): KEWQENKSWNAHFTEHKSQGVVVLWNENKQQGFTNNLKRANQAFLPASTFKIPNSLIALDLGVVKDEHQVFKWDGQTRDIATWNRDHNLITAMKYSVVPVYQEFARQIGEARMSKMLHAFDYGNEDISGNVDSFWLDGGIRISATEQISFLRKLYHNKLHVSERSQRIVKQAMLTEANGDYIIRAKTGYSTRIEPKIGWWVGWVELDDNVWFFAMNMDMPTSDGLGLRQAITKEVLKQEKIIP

## CCOc1ccccc1N1CCN(c2ncnc(N3CC(F)(C(=O)NC)C3)n2)CC1 [CDD-147, 1-(4-(4-(2-ethoxyphenyl)piperazin-1-yl)-1,3,5-triazin-2-yl)-3-fluoro-N-methylazetidine-3-carboxamide]
OXA-48
  potency/activity against OXA-48 in words: potency was low
OXA-48; [1]
  Ki: > 50 µM

## CCOc1ccccc1N1CCN(c2ncnc(N3CCC(C(N)=O)CC3)n2)CC1 [CDD-553, 1-(4-(4-(2-ethoxyphenyl)piperazin-1-yl)-1,3,5-triazin-2-yl)piperidine-4-carboxamide]
OXA-48
  potency/activity against OXA-48 in words: significant loss of inhibitory activity
OXA-48; [1]
  Ki for OXA-48 inhibition: No binding

## CCOc1ccccc1N1CCN(c2ncnc(N3CCC(C(=O)O)C(N)C3)n2)CC1 (stereo not drawn) [CDD-825]
OXA-48; [1]
  Ki: 17 µM and 16.9 µM
OXA-48; relative to CDD-97
  fold reduction in potency (OXA-48 Ki) compared to CDD-97: approximately 30 fold

## O=C(O)C1CCN(c2ncnc(N3CCN(c4ccccc4C(F)(F)F)CC3)n2)CC1 [CDD-180, 1-(4-(4-(2-(trifluoromethyl)phenyl)piperazin-1-yl)-1,3,5-triazin-2-yl)piperidine-4-carboxylic acid]
OXA-48; [1]
  Ki: 1.7 µM

## NC(=O)[C@@H]1CC[C@@H]2CN1C(=O)N2OS(=O)(=O)O [avibactam, reference compound]
E. coli MG1655OXA-48; E. coli expressing OXA-48, CDD-97 up to 256 μg/mL, avibactam up to 4 μg/mL
  synergy with β-lactam antibiotics (effect on AMP/IMP MIC) in words: dose-dependent decrease in both the AMP and IMP MICs
E. coli MG1655OXA-48; MG1655OXA48, read-out: AMP MIC, with 0.125 μg/mL avibactam
  MIC: 256 µg/mL
E. coli MG1655OXA-48; MG1655OXA48, read-out: AMP MIC, with 1 μg/mL avibactam
  MIC: 32 µg/mL
E. coli MG1655OXA-48; MG1655OXA48, read-out: AMP MIC, with 2 μg/mL avibactam
  MIC: 16 µg/mL
E. coli MG1655OXA-48; MG1655OXA48, read-out: AMP MIC, with 4 μg/mL avibactam
  MIC: 4 µg/mL
E. coli MG1655OXA-48; MG1655OXA48, read-out: AMP MIC, with .25 μg/mL avibactam
  MIC: 128 µg/mL
E. coli MG1655OXA-48; MG1655OXA48, read-out: AMP MIC, with .5 μg/mL avibactam
  MIC: 64 µg/mL
E. coli MG1655OXA-48; MG1655OXA48, read-out: IMP MIC, with 0.125 μg/mL avibactam
  MIC: 0.312 µg/mL
E. coli MG1655OXA-48; MG1655OXA48, read-out: IMP MIC, with 1 μg/mL avibactam
  MIC: 0.156 µg/mL
E. coli MG1655OXA-48; MG1655OXA48, read-out: IMP MIC, with 2 μg/mL avibactam
  MIC: 0.156 µg/mL
E. coli MG1655OXA-48; MG1655OXA48, read-out: IMP MIC, with 4 μg/mL avibactam
  MIC: 0.0781 µg/mL
E. coli MG1655OXA-48; MG1655OXA48, read-out: IMP MIC, with .25 μg/mL avibactam
  MIC: 0.312 µg/mL
E. coli MG1655OXA-48; MG1655OXA48, read-out: IMP MIC, with .5 μg/mL avibactam
  MIC: 0.156 µg/mL

## CCOc1ccccc1CCNc1ncnc(N2CCC(C(=O)O)CC2)n1 [CDD-375, 1-(4-((2-ethoxyphenethyl)amino)-1,3,5-triazin-2-yl)piperidine-4-carboxylic acid]
OXA-48; [1]
  Ki: 7.51 ± 0.23 µM

## CCOc1ccccc1N1CCN(c2nc(NCCN)nc(N3CCC(C(=O)O)CC3)n2)CC1 [CDD-864, 1-(4-((2-aminoethyl)amino)-6-(4-(2-ethoxyphenyl)piperazin-1-yl)-1,3,5-triazin-2-yl)piperidine-4-carboxylic acid]
OXA-48; [1]
  Ki: 0.6 µM

## CCOc1ccccc1N1CCN(c2ncnc(N3CC(F)(C(=O)O)C3)n2)CC1 [CDD-96, 1-(4-(4-(2-ethoxyphenyl)piperazin-1-yl)-1,3,5-triazin-2-yl)-3-fluoroazetidine-3-carboxylic acid]
OXA-48
  potency/activity against OXA-48 in words: potency was low

## CCOc1ccccc1N1CCN(c2nc(NCCCCN)nc(N3CCC(C(=O)O)CC3)n2)CC1 [CDD-863]
OXA-48
  potency/activity against OXA-48 in words: does not have a large effect on potency
OXA-48; [1]
  Ki: 0.45 µM

## CCOc1ccccc1N1CCN(c2ncnc(N3CCC(S(=O)(=O)O)CC3)n2)CC1 [CDD-862, 1-(4-(4-(2-ethoxyphenyl)piperazin-1-yl)-1,3,5-triazin-2-yl)piperidine-4-sulfonic acid]
OXA-48; purified OXA-48, nitrocefin
  Ki: 0.26 µM
OXA-48; [1]
  Ki: 0.27 ± 0.02 µM

## colistin [reference compound]
E. coli MG1655OXA-48; colistin, with or without AMP
  colistin concentration at which bacteria were completely killed off regardless of the presence of AMP: At ≥2 μg/mL colistin, bacteria were completely

## CCOc1ccccc1N1CCN(c2nc(N)nc(N3CCC(C(=O)O)CC3)n2)CC1 [CDD-616, 1-(4-amino-6-(4-(2-ethoxyphenyl)piperazin-1-yl)-1,3,5-triazin-2-yl)piperidine-4-carboxylic acid]
OXA-48
  potency/activity against OXA-48 in words: does not have a large effect on potency; also recorded: retain potency; also recorded: did not affect potency
OXA-48; [1]
  Ki: 0.52 ± 0.01 µM

## CCOc1ccccc1N1CCN(c2nc(N3CCC(C(=O)O)CC3)nc(N3CC(F)(C(=O)NC)C3)n2)CC1 [CDD-163, 1-(4-(4-(2-ethoxyphenyl)piperazin-1 yl)-6-(3-fluoro-3-(methylcarbamoyl)azetidin-1-yl)-1,3,5-triazin-2-yl)piperidine-4-carboxylic acid]
OXA-48; [1]
  Ki: > 50 µM

## CCOc1ccccc1N1CCN(c2ncnc(N3CCC(C(=O)OC)CC3)n2)CC1 [CDD-95, methyl 1-(4-(4-(2-ethoxyphenyl)piperazin-1-yl)-1,3,5-triazin-2-yl)piperidine-4-carboxylate]
OXA-48
  potency/activity against OXA-48 in words: low of activity; also recorded: significant loss of inhibitory activity
OXA-48; [1]
  Ki: ≥ 50 µM

## CCOc1ccccc1OCCOc1ncnc(N2CCC(C(=O)O)CC2)n1
OXA-48; [1]
  Ki: 18.8 ± 2.5 µM

## CC1(C)S[C@@H]2[C@H](NC(=O)[C@H](N)c3ccccc3)C(=O)N2[C@H]1C(=O)O [AMP, ampicillin, reference compound]
E. coli MG1655OXA-48; MG1655OXA48, read-out: AMP MIC, ampicillin alone, no inhibitor
  MIC: 512 µg/mL
E. coli MG1655OXA-48; MG1655OXA48, read-out: AMP MICs, (−) CDD-97, colistin 0 μg/mL
  MIC: 1020 µg/mL
E. coli MG1655OXA-48; MG1655OXA48, read-out: AMP MICs, (−) CDD-97, colistin 0.0625 μg/mL
  MIC: 1020 µg/mL
E. coli MG1655OXA-48; MG1655OXA48, read-out: AMP MICs, (−) CDD-97, colistin 0.125 μg/mL
  MIC: 1020 µg/mL
E. coli MG1655OXA-48; MG1655OXA48, read-out: AMP MICs, (−) CDD-97, colistin 0.25 μg/mL
  MIC: 512 µg/mL
E. coli MG1655OXA-48; MG1655OXA48, read-out: AMP MICs, (−) CDD-97, colistin 0.5 μg/mL
  MIC: 256 µg/mL
E. coli MG1655OXA-48; MG1655OXA48, read-out: AMP MICs, (−) CDD-97, colistin 1 μg/mL
  MIC: 256 µg/mL

## C[C@@H](O)[C@H]1C(=O)N2C(C(=O)O)=C(SCCN=CN)C[C@H]12 [IMP, imipenem, reference compound]
E. coli MG1655OXA-48; MG1655OXA48, read-out: IMP MIC, imipenem alone, no inhibitor
  MIC: 0.625 µg/mL
